The assay deals with T1, human PD-1 (Jurkat-PD-1 cells) / PE-labeled human PD-L1-Ig (Homo sapiens, UniProt Q15116).
T1 construct: expressed in transfected cells; host or cells: Jurkat cell line over-expressing human PD-1
Briefly: Jurkat-PD-1 Cell Binding High-Content Screening Assay (CBA); Jurkat hPD1-PDL1 assay. To be noted: Jurkat cell line over-expressing human PD-1; PE-labeled PD-L1-Ig 20 nM final; compound incubated 2 hours at 37° C.; read-out: Jurkat HPD1-PDL1 IC50. As for the experimental part:
The ability of the compounds of formula (I) to bind to PD-1 was investigated using a Jurkat-PD-1 Cell Binding High-Content Screening Assay.
Jurkat-PD-1 Cell Binding High-Content Screening Assay (CBA)
Phycoerythrin (PE) was covalently linked to the Ig epitope tag of human PD-L1-Ig and fluorescently-labeled PD-L1-Ig was used for binding studies with a Jurkat cell line over-expressing human PD-1 (Jurkat-PD-1). Briefly, 8×10^3 Jurkat-hPD-1 cells were seeded into 384 well plates in 20 μL of DMEM supplemented with 10% fetal calf serum. 100 nL of compound was added to cells followed by incubation at 37° C. for 2 hours. Then, 5 μL of PE-labeled PD-L1-Ig (20 nM final), diluted in DMEM supplemented with 10% fetal calf serum. […] Data was collected and processed using a Cell Insight NXT High Content Imager and associated software.

Usually pIC50 stands for −log10 of the IC50, conventionally taken in molar units.

pIC50: −log10 of the molar value. Positions of bridges follow the written chain, without caps; N, C: chain ends. Non-standard residues stand in square brackets, D forms with d. Residues, ends and D or L forms follow the SMILES beside them. ξ: configuration not given here. *: point of attachment. Ala(indol-4-yl) = N[C@@H](Cc1cccc2[nH]ccc12)C(=O)O; Phe(4-COOH) = N[C@@H](Cc1ccc(C(=O)O)cc1)C(=O)O; Phe(4-CH2NH2) = NCc1ccc(C[C@H](N)C(=O)O)cc1; Bip = N[C@@H](Cc1ccc(-c2ccccc2)cc1)C(=O)O; Phe(3-Me) = Cc1cccc(C[C@H](N)C(=O)O)c1; 1Nal = N[C@@H](Cc1cccc2ccccc12)C(=O)O; NMeY = CN[C@@H](Cc1ccc(O)cc1)C(=O)O; NMeF = CN[C@@H](Cc1ccccc1)C(=O)O; 3Pal = N[C@@H](Cc1cccnc1)C(=O)O; 4Pal = N[C@@H](Cc1ccncc1)C(=O)O; Cha = N[C@@H](CC1CCCCC1)C(=O)O; dDab = NCC[C@@H](N)C(=O)O; Carboxymethyl = O=C(O)C*; NMeA = CN[C@@H](C)C(=O)O; Orn = NCCC[C@H](N)C(=O)O; Dab = NCC[C@H](N)C(=O)O; ξV = CC(C)C(N)C(=O)O; Sar = CNCC(=O)O

T1 sequence (Q15116 25-288): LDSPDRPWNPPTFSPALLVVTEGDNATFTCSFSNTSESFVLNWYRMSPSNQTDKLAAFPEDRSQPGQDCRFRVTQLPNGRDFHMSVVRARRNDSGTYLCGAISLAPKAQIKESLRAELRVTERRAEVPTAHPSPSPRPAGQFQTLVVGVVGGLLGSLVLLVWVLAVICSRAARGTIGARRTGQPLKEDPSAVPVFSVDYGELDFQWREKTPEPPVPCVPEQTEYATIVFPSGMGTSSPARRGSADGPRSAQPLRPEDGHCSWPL

In the case of `CC(C)C[C@@H]1NC(=O)[C@H](Cc2c[nH]c3ccccc23)NC(=O)[C@H](CC(=O)O)NC(=O)[C@H](Cc2ccc(O)cc2)NC(=O)[C@H](Cc2ccc(O)cc2)NC(=O)CSC[C@@H](C(=O)NCC(N)=O)NC(=O)[C@H](CO)NC(=O)[C@H](C(C)C)NC(=O)[C@H](CC(C)C)NC(=O)[C@H](CC(N)=O)NC(=O)CN(C)C(=O)[C@H](C)N(C)C(=O)[C@H](C(C)C)NC(=O)[C@H](Cc2ccc(-c3ccccc3)cc2)NC1=O` [Example 1152] ({CH2CO}-YYDWL[Bip]V[NMeA][Sar]NLVSCG-NH2; thioether N-14), the pIC50 is 6.13.
To `CC(C)C[C@@H]1NC(=O)[C@H](Cc2c[nH]c3ccccc23)NC(=O)[C@H](CC(=O)O)NC(=O)[C@H](Cc2ccc(O)cc2)NC(=O)[C@H](Cc2ccncc2)NC(=O)CSC[C@@H](C(=O)N[C@@H](C)C(N)=O)NC(=O)[C@H](CO)NC(=O)[C@H](C(C)C)NC(=O)[C@H](CC(C)C)NC(=O)[C@H](CC(N)=O)NC(=O)[C@H]2CCCN2C(=O)[C@H](C)N(C)C(=O)[C@H](C(C)C)NC(=O)[C@H](Cc2ccc(-c3ccccc3)cc2)NC1=O` [Example 1023] ({CH2CO}-[4Pal]YDWL[Bip]V[NMeA][dP]NLVSCA-NH2; thioether N-14) belongs 7.40; to `CC(C)C[C@@H]1NC(=O)[C@H](Cc2c[nH]c3ccccc23)NC(=O)[C@H](CC(=O)O)NC(=O)[C@H](Cc2ccc(CN)cc2)NC(=O)[C@H](Cc2ccccc2)NC(=O)CSC[C@@H](C(=O)N[C@@H](C)C(N)=O)NC(=O)[C@H](CO)NC(=O)[C@H](C(C)C)NC(=O)[C@H](CC(C)C)NC(=O)[C@H](CC(N)=O)NC(=O)CN(C)C(=O)[C@H](C)N(C)C(=O)[C@H](C(C)C)NC(=O)[C@H](Cc2ccc(-c3ccccc3)cc2)NC1=O` [Example 1101] ({CH2CO}-F[Phe(4-CH2NH2)]DWL[Bip]V[NMeA][Sar]NLVSCA-NH2; thioether N-14), 6.52.
`CC(C)C[C@@H]1NC(=O)[C@H](CC(N)=O)NC(=O)[C@H](Cc2ccccc2)N(C)C(=O)[C@H](C)N(C)C(=O)[C@H](C(C)C)NC(=O)[C@H](Cc2ccc(-c3ccccc3)cc2)NC(=O)[C@H](C(C)C)NC(=O)[C@H](Cc2c[nH]c3ccccc23)NC(=O)[C@H](CC(=O)O)NC(=O)[C@H](Cc2ccc(O)cc2)NC(=O)[C@H](Cc2ccccc2)NC(=O)CSC[C@@H](C(=O)N[C@@H](C)C(N)=O)NC(=O)[C@H](CO)NC(=O)[C@H](C(C)C)NC1=O` [Example 1112] ({CH2CO}-FYDWV[Bip]V[NMeA][NMeF]NLVSCA-NH2; thioether N-14): the pIC50 is 6.43.
Consider `CC(C)C1NC(=O)[C@H](Cc2c[nH]c3ccccc23)NC(=O)[C@H](CC(=O)O)NC(=O)[C@H](Cc2ccc(C(=O)O)cc2)NC(=O)[C@H](Cc2ccncc2)NC(=O)CSC[C@@H](C(=O)N[C@@H](C)C(N)=O)NC(=O)[C@H]([C@@H](C)O)NC(=O)[C@H](C(C)C)NC(=O)[C@H](CC2CCCCC2)NC(=O)[C@H](CCN)NC(=O)[C@H](Cc2ccc(O)cc2)N(C)C(=O)[C@H](CCCN)NC(=O)[C@H](CCC(=O)O)NC(=O)[C@H](Cc2ccc(-c3ccccc3)cc2)NC1=O` (some centres unmarked) [Example 1450] ({CH2CO}-[4Pal][Phe(4-COOH)]DW[ξV][Bip]E[Orn][NMeY][Dab][Cha]VTCA-NH2; thioether N-14), for which the negative-log IC50 (pIC50) is 6.68.
To `CC(C)C[C@@H]1NC(=O)[C@H](CCN)NC(=O)[C@H](Cc2ccccc2)N(C)C(=O)[C@H](C)N(C)C(=O)[C@H](CCCNC(=N)N)NC(=O)[C@H](Cc2ccc(-c3ccccc3)cc2)NC(=O)[C@H](C(C)C)NC(=O)[C@H](Cc2c[nH]c3ccccc23)NC(=O)[C@H](CC(=O)O)NC(=O)[C@H](Cc2ccc(O)cc2)NC(=O)[C@H](Cc2cccnc2)NC(=O)CSC[C@@H](C(=O)N[C@@H](C)C(N)=O)NC(=O)[C@H](CO)NC(=O)[C@H](C(C)C)NC1=O` [Example 1306] ({CH2CO}-[3Pal]YDWV[Bip]R[NMeA][NMeF][Dab]LVSCA-NH2; thioether N-14) belongs 6.34; to `CC(C)C[C@@H]1NC(=O)[C@H](CCCNC(=N)N)NC(=O)[C@H](Cc2ccccc2)N(C)C(=O)[C@H](C)N(C)C(=O)[C@H](CCCNC(=N)N)NC(=O)[C@H](Cc2ccc(-c3ccccc3)cc2)NC(=O)[C@H](C(C)C)NC(=O)[C@H](Cc2c[nH]c3ccccc23)NC(=O)[C@H](CC(=O)O)NC(=O)[C@H](Cc2ccc(O)cc2)NC(=O)[C@H](Cc2cccnc2)NC(=O)CSC[C@@H](C(=O)N[C@@H](C)C(N)=O)NC(=O)[C@H]([C@@H](C)O)NC(=O)[C@H](C(C)C)NC1=O` [Example 1348] ({CH2CO}-[3Pal]YDWV[Bip]R[NMeA][NMeF]RLVTCA-NH2; thioether N-14), 6.66.
In the case of `Cc1cccc(C[C@@H]2NC(=O)[C@H](CC(=O)O)NC(=O)[C@H](Cc3ccc(C(=O)O)cc3)NC(=O)[C@H](Cc3ccc(OCC(=O)O)cc3)NC(=O)CSC[C@@H](C(=O)N[C@@H](C)C(N)=O)NC(=O)[C@H]([C@@H](C)O)NC(=O)[C@H](C(C)C)NC(=O)[C@H](CC3CCCCC3)NC(=O)[C@H](CCN)NC(=O)[C@H](Cc3ccccc3)N(C)C(=O)[C@H](CCCN)NC(=O)[C@H](CCC(=O)O)NC(=O)[C@H](Cc3ccc(-c4ccccc4)cc3)NC(=O)C(C(C)C)NC2=O)c1` (some centres unmarked) [Example 1449] ({CH2CO}-Y(Carboxymethyl)[Phe(4-COOH)]D[Phe(3-Me)][ξV][Bip]E[Orn][NMeF][Dab][Cha]VTCA-NH2; thioether N-14) it was 7.52.
To `CC(C)C[C@@H]1NC(=O)[C@H](Cc2cccc3[nH]ccc23)NC(=O)[C@H](CC(=O)O)NC(=O)[C@H](Cc2ccc(O)cc2)NC(=O)[C@H](Cc2ccccc2)NC(=O)CSC[C@@H](C(=O)N[C@@H](C)C(N)=O)NC(=O)[C@H](CO)NC(=O)[C@H](C(C)C)NC(=O)[C@H](CC(C)C)NC(=O)[C@H](CC(N)=O)NC(=O)CN(C)C(=O)[C@H](C)N(C)C(=O)[C@H](C(C)C)NC(=O)[C@H](Cc2ccc(-c3ccccc3)cc2)NC1=O` [Example 1124] ({CH2CO}-FYD[Ala(indol-4-yl)]L[Bip]V[NMeA][Sar]NLVSCA-NH2; thioether N-14) belongs 6.35; to `CC(C)C[C@@H]1NC(=O)[C@H](Cc2c[nH]c3ccccc23)NC(=O)[C@H](CC(=O)O)NC(=O)[C@H](Cc2ccc(O)cc2)NC(=O)[C@H](Cc2ccc(OCC(=O)O)cc2)NC(=O)CSC[C@@H](C(=O)NCC(N)=O)NC(=O)[C@H](CO)NC(=O)[C@H](C(C)C)NC(=O)[C@H](CC(C)C)NC(=O)[C@H](CC(N)=O)NC(=O)CN(C)C(=O)[C@H](C)N(C)C(=O)[C@H](C(C)C)NC(=O)[C@H](Cc2ccc(-c3ccccc3)cc2)NC1=O` [Example 1137] ({CH2CO}-Y(Carboxymethyl)YDWL[Bip]V[NMeA][Sar]NLVSCG-NH2; thioether N-14), 6.25; to `CC(C)C[C@@H]1NC(=O)[C@H](CCCNC(=N)N)NC(=O)[C@H](Cc2ccccc2)N(C)C(=O)[C@H](C)N(C)C(=O)[C@H](CCCNC(=N)N)NC(=O)[C@H](Cc2ccc(-c3ccccc3)cc2)NC(=O)[C@H](C(C)C)NC(=O)[C@H](Cc2c[nH]c3ccccc23)NC(=O)[C@H](CC(=O)O)NC(=O)[C@H](Cc2ccc(O)cc2)NC(=O)[C@H](Cc2ccccc2)NC(=O)CSC[C@@H](C(=O)N[C@H](C(N)=O)C(C)C)NC(=O)[C@H](CO)NC(=O)[C@H](C(C)C)NC1=O` [Example 1167] ({CH2CO}-FYDWV[Bip]R[NMeA][NMeF]RLVSCV-NH2; thioether N-14), 6.04.
For the compound `CC(C)C[C@@H]1NC(=O)[C@H](Cc2c[nH]c3ccccc23)NC(=O)[C@H](CC(=O)O)NC(=O)[C@H](Cc2ccc(O)cc2)NC(=O)[C@H](Cc2ccccc2)NC(=O)CSC[C@@H](C(=O)N[C@@H](C)C(N)=O)NC(=O)[C@H]([C@@H](C)O)NC(=O)[C@H](CCCNC(=N)N)NC(=O)[C@H](CC(C)C)NC(=O)[C@H](CC(N)=O)NC(=O)[C@H]2CCCN2C(=O)[C@H](C)N(C)C(=O)[C@H](C(C)C)NC(=O)[C@H](Cc2ccc(-c3ccccc3)cc2)NC1=O` [Example 1171] ({CH2CO}-FYDWL[Bip]V[NMeA][dP]NLRTCA-NH2; thioether N-14), the pIC50 was 6.03.
In the case of `CC(C)C[C@@H]1NC(=O)[C@H](CCCNC(=N)N)NC(=O)[C@H](Cc2ccccc2)N(C)C(=O)[C@H](C)N(C)C(=O)[C@H](CCCNC(=N)N)NC(=O)[C@H](Cc2ccc(-c3ccccc3)cc2)NC(=O)[C@H](C(C)C)NC(=O)[C@H](Cc2cccc3ccccc23)NC(=O)[C@H](CC(=O)O)NC(=O)[C@H](Cc2ccc(O)cc2)NC(=O)[C@H](Cc2ccccc2)NC(=O)CSC[C@@H](C(=O)NCC(N)=O)NC(=O)[C@H](CO)NC(=O)[C@H](C(C)C)NC1=O` [Example 1240] ({CH2CO}-FYD[1Nal]V[Bip]R[NMeA][NMeF]RLVSCG-NH2; thioether N-14) it was 6.77; in that of `CC(C)C[C@@H]1NC(=O)[C@H](Cc2c[nH]c3ccccc23)NC(=O)[C@H](CC(=O)O)NC(=O)[C@H](Cc2ccc(O)cc2)NC(=O)[C@H](Cc2ccccc2)NC(=O)CSC[C@@H](C(=O)N[C@@H](C)C(N)=O)NC(=O)[C@H](CO)NC(=O)[C@H](C(C)C)NC(=O)[C@H](CC(C)C)NC(=O)[C@H](CC(N)=O)NC(=O)[C@H]2CCCN2C(=O)[C@@H](CCN)NC(=O)[C@H](C(C)C)NC(=O)[C@H](Cc2ccc(-c3ccccc3)cc2)NC1=O` [Example 1195] ({CH2CO}-FYDWL[Bip]V[dDab][dP]NLVSCA-NH2; thioether N-14), 6.43.

Source of the values: patent publication US20240360178A1, “MACROCYCLIC IMMUNOMODULATORS” (Bristol-Myers Squibb Company, priority 2021, published 2024).
